Experimental data from patent publication US12440496B2, “Natriuretic peptide receptor a agonists useful for the treatment of cardiometabolic diseases, kidney disease and diabetes” (Merck Sharp & Dohme LLC, priority 2019, dated 2025).

biological target: T1, hNPRA (Homo sapiens, UniProt P16066); assay: NPRA Functional Cell Assay (cGMP HTRF, NPRA HEK JumpIn stable cells); format: cell-based; conditions: cGMP production, 1 hour at 37° C., 10-point dose response
T1 construct: expressed in transfected cells
T1 sequence (P16066 33-1061): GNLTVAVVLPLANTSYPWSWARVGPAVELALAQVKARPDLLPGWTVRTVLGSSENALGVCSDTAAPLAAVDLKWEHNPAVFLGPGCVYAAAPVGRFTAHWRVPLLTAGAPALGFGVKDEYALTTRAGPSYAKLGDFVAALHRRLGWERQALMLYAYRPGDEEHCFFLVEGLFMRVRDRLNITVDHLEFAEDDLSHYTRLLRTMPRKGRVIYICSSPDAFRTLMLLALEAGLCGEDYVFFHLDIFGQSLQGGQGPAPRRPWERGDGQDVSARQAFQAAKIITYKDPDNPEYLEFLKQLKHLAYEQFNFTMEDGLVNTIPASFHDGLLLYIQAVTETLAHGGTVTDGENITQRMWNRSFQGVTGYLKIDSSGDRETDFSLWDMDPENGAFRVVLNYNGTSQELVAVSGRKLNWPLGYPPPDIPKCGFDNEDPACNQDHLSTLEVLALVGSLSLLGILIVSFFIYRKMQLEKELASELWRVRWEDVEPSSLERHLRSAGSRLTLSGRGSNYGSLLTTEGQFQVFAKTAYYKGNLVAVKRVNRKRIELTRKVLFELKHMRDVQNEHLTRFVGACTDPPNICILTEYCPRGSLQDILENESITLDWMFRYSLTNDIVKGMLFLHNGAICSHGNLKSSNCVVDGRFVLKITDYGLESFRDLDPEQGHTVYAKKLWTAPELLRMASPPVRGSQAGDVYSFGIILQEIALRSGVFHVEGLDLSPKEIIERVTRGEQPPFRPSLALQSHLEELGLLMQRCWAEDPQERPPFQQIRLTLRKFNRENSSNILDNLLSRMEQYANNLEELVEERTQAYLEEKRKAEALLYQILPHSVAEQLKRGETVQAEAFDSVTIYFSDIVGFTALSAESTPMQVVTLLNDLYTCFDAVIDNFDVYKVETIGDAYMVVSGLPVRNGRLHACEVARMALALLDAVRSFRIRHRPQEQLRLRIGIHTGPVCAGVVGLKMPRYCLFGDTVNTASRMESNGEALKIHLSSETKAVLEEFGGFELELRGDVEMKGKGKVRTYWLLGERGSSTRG
Outline: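 cGMP HTRF read-out after 1 hour compound treatment at 37° C. of human NPRA-expressing HEK JumpIn cells, 1500 cells/well, in buffer with phosphodiesterase inhibitors IBMX and RO20 (100 uM each). Signal converted to [cGMP] by calibration curve; EC50s fitted by 4-parameter logistic; 50 nM h-ANP as positive response.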

| Structure (SMILES) | EC50 |
| --- | --- |
| CC(C)(C)[C@H]1CCc2nc3sc(C(=O)N[C@H](CCNC4CCOCC4)c4ccc(-c5ccc(=O)[nH]c5)cc4)cc3cc2C1 (racemic) [Example 36, [rac-(3R)-3-[4-(6-oxo-1H-pyridin-3-yl)phenyl]-3-[rac-(6S)-6-tert-butyl-5,6,7,8-tetrahydrothieno[2,3-b]quinoline-2-carbonyl]amino]propyl]-tetrahydropyran-4-yl-ammonium;formate] | 557 nM |
| CC(C)(C)[C@H]1CCc2nc3sc(C(=O)N[C@H](CCN[C@@H]4C[C@@H](O)[C@@H](O)C4)c4ccc(-c5ccc(=O)[nH]c5)cc4)cc3cc2C1 (racemic) [Example 37, [rac-(3R,4S)-3,4-dihydroxycyclopentyl]-[rac-(3R)-3-[4-(6-oxo-1H-pyridin-3-yl)phenyl]-3-[[rac-(6S)-6-tert-butyl-5,6,7,8-tetrahydrothieno[2,3-b]quinoline-2-carbonyl]amino]propyl] ammonium;formate] | 575 nM |
| CC(C)(C)[C@H]1CCc2nc3sc(C(=O)N[C@H](CCN4CCC[C@H]4CO)c4ccc(-c5ccc(=O)[nH]c5)cc4)cc3cc2C1 (racemic) [Example 38, rac-(6S)-6-tert-butyl-N-[rac-(1R)-1-[4-(6-oxo-1H-pyridin-3-yl)phenyl]-3-[rac-(2S)-2-(hydroxymethyl)pyrrolidin-1-ium-1-yl]propyl]-5,6,7,8-tetrahydrothieno[2,3-b]quinoline-2-carboxamide;formate] | 582 nM |
| CC(C)(C)[C@H]1CCc2nc3sc(C(=O)N[C@H](CCN[C@H]4C[C@@H](O)[C@@H](O)C4)c4ccc(-c5ccc(=O)[nH]c5)cc4)cc3cc2C1 (racemic) [Example 39, [rac-(3R,4S)-3,4-dihydroxycyclopentyl]-[rac-(3R)-3-[4-(6-oxo-1H-pyridin-3-yl)phenyl]-3-[[rac-(6S)-6-tert-butyl-5,6,7,8-tetrahydrothieno[2,3-b]quinoline-2-carbonyl]amino]propyl] ammonium;formate] | 655 nM |
| CC(C)(C)[C@H]1CCc2nc3sc(C(=O)N[C@H](CCN4CCC5(CC4)CNC(=O)O5)c4ccc(-c5ccc(=O)[nH]c5)cc4)cc3cc2C1 (racemic) [Example 40, rac-(6S)-6-tert-butyl-N-[rac-(1R)-3-(2-oxo-1-oxa-3-aza-8-azoniaspiro[4.5]decan-8-yl)-1-[4-(6-oxo-1H-pyridin-3-yl)phenyl]propyl]-5,6,7,8-tetrahydrothieno[2,3-b]quinoline-2-carboxamide;formate] | 655 nM |
| CC(C)(C)[C@H]1CCc2nc3sc(C(=O)N[C@H](CCN4CCC(O)C4)c4ccc(-c5ccc(=O)[nH]c5)cc4)cc3cc2C1 (mixture of isomers) [Example 41, rac-(6S)-6-tert-butyl-N-[rac-(1R)-3-(3-hydroxypyrrolidin-1-ium-1-yl)-1-[4-(6-oxo-1H-pyridin-3-yl)phenyl]propyl]-5,6,7,8-tetrahydrothieno[2,3-b]quinoline-2-carboxamide;formate] | 656 nM |
| CNCC[C@@H](NC(=O)c1cc2cc3c(nc2s1)CC[C@H](C(C)(C)C)C3)c1ccc(-c2ccc(=O)[nH]c2)cc1 (racemic) [Example 42, rac-(6S)-6-tert-butyl-N-[rac-(1R)-3-(methylamino)-1-[4-(6-oxo-1H-pyridin-3-yl)phenyl]propyl]-5,6,7,8-tetrahydrothieno[2,3-b]quinoline-2-carboxamide] | 658 nM |
| COC[C@@H]1CCCN1CC[C@@H](NC(=O)c1cc2cc3c(nc2s1)CC[C@H](C(C)(C)C)C3)c1ccc(-c2ccc(=O)[nH]c2)cc1 (racemic) [Example 43, rac-(6S)-6-tert-butyl-N-[rac-(1R)-1-[4-(6-oxo-1H-pyridin-3-yl)phenyl]-3-[rac-(2S)-2-(methoxymethyl)pyrrolidin-1-yl]propyl]-5,6,7,8-tetrahydrothieno[2,3-b]quinoline-2-carboxamide] | 663 nM |
| CC(C)(C)[C@H]1CCc2nc3sc(C(=O)N[C@H](CCN4CCC(C(=O)O)CC4)c4ccc(-c5ccc(=O)[nH]c5)cc4)cc3cc2C1 (racemic) [Example 44, 1-[rac-(3R)-3-[4-(6-oxo-1H-pyridin-3-yl)phenyl]-3-[rac-(6S)-6-tert-butyl-5,6,7,8-tetrahydrothieno[2,3-b]quinoline-2-carbonyl]amino]propyl] piperidin-1-ium-4-carboxylic acid;formate] | 665 nM |
| CC1(O)CCN(CC[C@@H](NC(=O)c2cc3cc4c(nc3s2)CC[C@H](C(C)(C)C)C4)c2ccc(-c3ccc(=O)[nH]c3)cc2)CC1 (racemic) [Example 45, rac-(6S)-6-tert-butyl-N-[rac-(1R)-3-(4-hydroxy-4-methyl-piperidin-1-ium-1-yl)-1-[4-(6-oxo-1H-pyridin-3-yl)phenyl]propyl]-5,6,7,8-tetrahydrothieno[2,3-b]quinoline-2-carboxamide;formate] | 673 nM |
| CC1(CN)CN(CC[C@@H](NC(=O)c2cc3cc4c(nc3s2)CC[C@H](C(C)(C)C)C4)c2ccc(-c3ccc(=O)[nH]c3)cc2)C1 (racemic) [Example 46, [3-methyl-1-[rac-(3R)-3-[4-(6-oxo-1H-pyridin-3-yl)phenyl]-3-[[rac-(6S)-6-tert-butyl-5,6,7,8-tetrahydrothieno[2,3-b]quinoline-2-carbonyl]amino]propyl]azetidin-3-yl]methylammonium;formate] | 673 nM |
| CC(C)(C)[C@H]1CCc2nc3sc(C(=O)N[C@H](CCN4CCCC5(CC5)C4)c4ccc(-c5ccc(=O)[nH]c5)cc4)cc3cc2C1 (racemic) [Example 47, rac-(6S)-6-tert-butyl-N-[rac-(1R)-3-(5-azoniaspiro[2.5]octan-5-yl)-1-[4-(6-oxo-1H-pyridin-3-yl)phenyl]propyl]-5,6,7,8-tetrahydrothieno[2,3-b]quinoline-2-carboxamide;formate] | 674 nM |
| CC(C)(C)[C@H]1CCc2nc3sc(C(=O)N[C@H](CCN4CC(O)C4)c4ccc(-c5ccc(=O)[nH]c5)cc4)cc3cc2C1 (racemic) [Example 48, rac-(6S)-6-tert-butyl-N-[rac-(1R)-3-(3-hydroxyazetidin-1-ium-1-yl)-1-[4-(6-oxo-1H-pyridin-3-yl)phenyl]propyl]-5,6,7,8-tetrahydrothieno[2,3-b]quinoline-2-carboxamide;formate] | 679 nM |
| CC(C)(C)[C@H]1CCc2nc3sc(C(=O)N[C@H](CCNCCO)c4ccc(-c5ccc(=O)[nH]c5)cc4)cc3cc2C1 (racemic) [Example 49, 2-hydroxyethyl-[rac-(3R)-3-[4-(6-oxo-1H-pyridin-3-yl)phenyl]-3-[[rac-(6S)-6-tert-butyl-5,6,7,8-tetrahydrothieno[2,3-b]quinoline-2-carbonyl]amino}propyl] ammonium;formate] | 682 nM |
| CN(CC[C@@H](NC(=O)c1cc2cc3c(nc2s1)CC[C@H](C(C)(C)C)C3)c1ccc(-c2ccc(=O)[nH]c2)cc1)C1CCCC1 (racemic) [Example 50, cyclopentyl-methyl-[rac-(3R)-3-[4-(6-oxo-1H-pyridin-3-yl)phenyl]-3-[rac-(6S)-6-tert-butyl-5,6,7,8-tetrahydrothieno[2,3-b]quinoline-2-carbonyl]amino]propyl] ammonium;formate] | 696 nM |
| CC(C)(C)[C@H]1CCc2nc3sc(C(=O)N[C@H](CCN4C[C@@H](O)[C@H](O)C4)c4ccc(-c5ccc(=O)[nH]c5)cc4)cc3cc2C1 (racemic) [Example 51, rac-(6S)-6-tert-butyl-N-[rac-(1R)-1-[4-(6-oxo-1H-pyridin-3-yl)phenyl]-3-[rac-(3R,4R)-3,4-dihydroxypyrrolidin-1-ium-1-yl]propyl]-5,6,7,8-tetrahydrothieno[2,3-b]quinoline-2-carboxamide;formate] | 705 nM |
| CC(C)(C)[C@H]1CCc2nc3sc(C(=O)N[C@H](CCNC4CCCC4)c4ccc(-c5ccc(=O)[nH]c5)cc4)cc3cc2C1 (racemic) [Example 52, cyclopentyl-[rac-(3R)-3-[4-(6-oxo-1H-pyridin-3-yl)phenyl]-3-[[rac-(6S)-6-tert-butyl-5,6,7,8-tetrahydrothieno[2,3-b]quinoline-2-carbonyl]amino]propyl] ammonium;formate] | 729 nM |
| CC(C)(C)[C@H]1CCc2nc3sc(C(=O)N[C@H](CCN4CC5CC4CO5)c4ccc(-c5ccc(=O)[nH]c5)cc4)cc3cc2C1 (mixture of isomers) [Example 53, rac-(6S)-6-tert-butyl-N-[rac-(1R)-3-(2-oxa-5-azoniabicyclo[2.2. 1]heptan-5-yl)-1-[4-(6-oxo-1H-pyridin-3-yl)phenyl]propyl]-5,6,7,8-tetrahydrothieno[2,3-b]quinoline-2-carboxamide;formate] | 755 nM |
